Reference: ChEMBL document CHEMBL1201862, “PubChem BioAssay data set” (2004)
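Tested at 5 concentrations; 48 h exposure; 96-well plates; endpoints linearly interpolated, else capped at highest concentration. Abbreviation: GI50, concentration required for 50% inhibition of growth.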 Activity calls are given as the source filed them. Rule as the data show it: active = GI50 up to about 1.1 µM and inactive = higher.

Key:
Assay in all cases: NCI anticancer screen, dose series, 48 h
SK-MEL-28 = tested on: SK-MEL-28
IGROV-1 = tested on: IGROV-1
HOP-62 = tested on: HOP-62
A549 = tested on: A549
Hs-578T = tested on: Hs-578T
M14 = tested on: M14
COLO 205 = tested on: COLO 205
MOLT-4 = tested on: MOLT-4
HT-29 = tested on: HT-29
OVCAR-5 = tested on: OVCAR-5
MDA-MB-231 = tested on: MDA-MB-231
SW-620 = tested on: SW-620
SR = tested on: SR
BT-549 = tested on: BT-549
MDA-N = tested on: MDA-N
RXF 393 = tested on: RXF 393
CCRF-CEM = tested on: CCRF-CEM
HCT-116 = tested on: HCT-116
MCF7 = tested on: MCF7
NCI-H23 = tested on: NCI-H23

SMILES	GI50 (SK-MEL-28)	GI50 (IGROV-1)	GI50 (HOP-62)	GI50 (A549)	GI50 (Hs-578T)	GI50 (M14)	GI50 (COLO 205)	GI50 (MOLT-4)	GI50 (HT-29)	GI50 (OVCAR-5)	GI50 (MDA-MB-231)	GI50 (SW-620)	GI50 (SR)	GI50 (BT-549)	GI50 (MDA-N)	GI50 (RXF 393)	GI50 (CCRF-CEM)	GI50 (HCT-116)	GI50 (MCF7)	GI50 (NCI-H23)
N#CCc1nc(-c2cc3ccccc3oc2=O)cs1	37.3 µM (inactive)	40.6 µM (inactive)	62.7 µM (inactive)	> 100 µM (inactive)	56.9 µM (inactive)	35.6 µM (inactive)	67.3 µM (inactive)	16.6 µM (inactive)	54 µM (inactive)	> 100 µM (inactive)	79.3 µM (inactive)	> 100 µM (inactive)	43.6 µM (inactive)	17.9 µM (inactive)	37.2 µM (inactive)	> 100 µM (inactive)	30.5 µM (inactive)	80.5 µM (inactive)	54.8 µM (inactive)	–
C/C(=N\Nc1nc2cc(C)ccc2s1)c1ccccn1	1.61 µM (inactive)	0.199 µM (active)	0.294 µM (active)	0.798 µM (active)	1.29 µM (inactive)	0.417 µM (active)	0.0518 µM (active)	< 0.0246 µM (active)	0.121 µM (active)	0.661 µM (active)	0.233 µM (active)	0.209 µM (active)	0.232 µM (active)	6.22 µM (inactive)	1.68 µM (inactive)	3.63 µM (inactive)	0.149 µM (active)	0.213 µM (active)	0.119 µM (active)	0.39 µM (active)
COC(=O)CCCC(=O)/C(=N\Nc1ccc(Cl)cc1)Nc1c(Cl)cccc1Cl	> 89.3 µM (inactive)	> 81.7 µM (inactive)	> 67.6 µM (inactive)	24.3 µM (inactive)	42.8 µM (inactive)	> 92.5 µM (inactive)	22.7 µM (inactive)	26 µM (inactive)	56.6 µM (inactive)	> 100 µM (inactive)	> 82.8 µM (inactive)	> 100 µM (inactive)	20.5 µM (inactive)	> 100 µM (inactive)	> 84.5 µM (inactive)	8.69 µM (inactive)	26.2 µM (inactive)	38.9 µM (inactive)	53.8 µM (inactive)	48.2 µM (inactive)
Cc1nc2c(o1)C(=O)c1ccccc1/C2=N\c1ccccc1	2 µM (inactive)	7.98 µM (inactive)	2.45 µM (inactive)	–	1.62 µM (inactive)	0.841 µM (active)	13.9 µM (inactive)	–	10.2 µM (inactive)	5.85 µM (inactive)	0.968 µM (active)	2.58 µM (inactive)	4.3 µM (inactive)	1.68 µM (inactive)	0.292 µM (active)	1.57 µM (inactive)	4.04 µM (inactive)	2.17 µM (inactive)	2.37 µM (inactive)	1.38 µM (inactive)
COc1ccc2c3c(ccc2c1)NC(C(=O)O)CC3 (configuration not stated)	67.8 µM (inactive)	40.8 µM (inactive)	80.5 µM (inactive)	62.1 µM (inactive)	50.4 µM (inactive)	45.1 µM (inactive)	39.5 µM (inactive)	19.5 µM (inactive)	45.2 µM (inactive)	> 100 µM (inactive)	85.7 µM (inactive)	35.2 µM (inactive)	18.5 µM (inactive)	> 100 µM (inactive)	57.8 µM (inactive)	> 100 µM (inactive)	–	80.2 µM (inactive)	36.4 µM (inactive)	> 100 µM (inactive)
COC(=O)[C@@H]1C[C@]2(CC=C(C)C)c3ccccc3N(S(=O)(=O)c3ccccc3)[C@@H]2N1C(=O)OC	47.1 µM (inactive)	–	26.8 µM (inactive)	11.6 µM (inactive)	10.6 µM (inactive)	–	28.2 µM (inactive)	8.2 µM (inactive)	23.5 µM (inactive)	> 100 µM (inactive)	20.4 µM (inactive)	40.6 µM (inactive)	5.33 µM (inactive)	32.2 µM (inactive)	26.9 µM (inactive)	8.22 µM (inactive)	27.9 µM (inactive)	20 µM (inactive)	8.87 µM (inactive)	> 100 µM (inactive)
Cn1c(=O)sc2cc(C(=S)N3CCC(Cc4ccccc4)CC3)ccc21	46.6 µM (inactive)	33.8 µM (inactive)	> 100 µM (inactive)	–	21.4 µM (inactive)	33.3 µM (inactive)	83.2 µM (inactive)	20.9 µM (inactive)	62.1 µM (inactive)	> 100 µM (inactive)	> 100 µM (inactive)	> 100 µM (inactive)	17.7 µM (inactive)	30.3 µM (inactive)	72.1 µM (inactive)	21.6 µM (inactive)	25.2 µM (inactive)	45.9 µM (inactive)	41.7 µM (inactive)	44.7 µM (inactive)
CC1=NOC2(C1)/C(=N/O)CCC/C2=N\O (configuration not stated)	> 100 µM (inactive)	> 100 µM (inactive)	> 100 µM (inactive)	> 100 µM (inactive)	> 100 µM (inactive)	> 100 µM (inactive)	> 100 µM (inactive)	> 100 µM (inactive)	> 100 µM (inactive)	> 100 µM (inactive)	> 100 µM (inactive)	> 100 µM (inactive)	> 100 µM (inactive)	> 100 µM (inactive)	> 100 µM (inactive)	3.39 µM (inactive)	> 100 µM (inactive)	> 100 µM (inactive)	> 100 µM (inactive)	> 100 µM (inactive)
Cc1nc(N)nc(N)c1N1CCN(Cc2ccccc2)CC1	> 78.9 µM (inactive)	19.9 µM (inactive)	42.4 µM (inactive)	3.56 µM (inactive)	48 µM (inactive)	13.3 µM (inactive)	31.8 µM (inactive)	29.7 µM (inactive)	11.8 µM (inactive)	> 37.8 µM (inactive)	> 86.3 µM (inactive)	38.9 µM (inactive)	36.6 µM (inactive)	> 93.3 µM (inactive)	21.9 µM (inactive)	13.4 µM (inactive)	16.5 µM (inactive)	4.71 µM (inactive)	27.1 µM (inactive)	17.1 µM (inactive)
CN(C)c1ccc(C=C2C(=O)NC(=S)NC2=O)c2ccccc12	77.4 µM (inactive)	36.1 µM (inactive)	> 100 µM (inactive)	> 100 µM (inactive)	26.5 µM (inactive)	> 100 µM (inactive)	> 100 µM (inactive)	29.6 µM (inactive)	> 100 µM (inactive)	> 100 µM (inactive)	> 100 µM (inactive)	46.6 µM (inactive)	33.5 µM (inactive)	61 µM (inactive)	42.7 µM (inactive)	26.3 µM (inactive)	38.6 µM (inactive)	> 100 µM (inactive)	67.6 µM (inactive)	71.9 µM (inactive)
Cc1n[nH]c(=O)c2c3c([nH]c12)-c1ccccc1C3	> 100 µM (inactive)	0.0716 µM (active)	> 100 µM (inactive)	> 100 µM (inactive)	> 100 µM (inactive)	> 100 µM (inactive)	> 100 µM (inactive)	39.9 µM (inactive)	> 100 µM (inactive)	> 100 µM (inactive)	66.4 µM (inactive)	> 100 µM (inactive)	82.8 µM (inactive)	> 100 µM (inactive)	> 100 µM (inactive)	77.3 µM (inactive)	> 100 µM (inactive)	> 100 µM (inactive)	75.3 µM (inactive)	> 100 µM (inactive)
COc1ccc(/C=C/C(=O)N[C@@H]2C(=O)N3[C@@H]2SC(C)(C)[C@@H]3C(=O)O)cc1	> 100 µM (inactive)	–	> 100 µM (inactive)	> 100 µM (inactive)	> 100 µM (inactive)	> 100 µM (inactive)	> 100 µM (inactive)	> 100 µM (inactive)	> 100 µM (inactive)	> 100 µM (inactive)	> 100 µM (inactive)	> 100 µM (inactive)	> 100 µM (inactive)	> 100 µM (inactive)	> 100 µM (inactive)	> 100 µM (inactive)	> 100 µM (inactive)	> 100 µM (inactive)	> 100 µM (inactive)	> 100 µM (inactive)
OC1C2CCCCN2C[C@@H](O)[C@H]1O (some centres not stated)	> 100 µM (inactive)	> 100 µM (inactive)	> 100 µM (inactive)	> 100 µM (inactive)	> 100 µM (inactive)	> 100 µM (inactive)	> 100 µM (inactive)	> 100 µM (inactive)	> 100 µM (inactive)	> 100 µM (inactive)	> 100 µM (inactive)	> 100 µM (inactive)	> 100 µM (inactive)	> 100 µM (inactive)	> 100 µM (inactive)	> 100 µM (inactive)	> 100 µM (inactive)	> 100 µM (inactive)	> 100 µM (inactive)	> 100 µM (inactive)
Oc1ccc(CNCc2ccccc2)c2cccnc12	0.424 µM (active)	0.292 µM (active)	0.0853 µM (active)	0.0875 µM (active)	0.243 µM (active)	0.27 µM (active)	2.65 µM (inactive)	0.215 µM (active)	4.11 µM (inactive)	1.22 µM (inactive)	0.36 µM (active)	0.356 µM (active)	0.182 µM (active)	0.0703 µM (active)	0.0762 µM (active)	0.116 µM (active)	0.0436 µM (active)	0.0594 µM (active)	0.11 µM (active)	0.156 µM (active)
